Our source for the IC50 values is patent US12240838B2, “Inhibiting agents for Bruton's tyrosine kinase” (BIOGEN MA INC., priority 2019, dated 2025).

Each structure is given as a SMILES string.

Test [1] deals with T1, BTK (Homo sapiens (Human), UniProt Q06187). Briefly: In Vitro PD Assay in Human Whole Blood (pBTK assay). The test is classed as cell-based. The conditions noted are these: 37° C. for 30 min, 50% inhibition of ECL signal. The procedure, abridged: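 Phospho-BTK was measured by total-BTK capture and phosphotyrosine detection in lysates of human heparinized whole blood. Vehicle samples lysed with or without phosphatase inhibitors defined the high and low controls.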
T1 sequence (Q06187 whole entry): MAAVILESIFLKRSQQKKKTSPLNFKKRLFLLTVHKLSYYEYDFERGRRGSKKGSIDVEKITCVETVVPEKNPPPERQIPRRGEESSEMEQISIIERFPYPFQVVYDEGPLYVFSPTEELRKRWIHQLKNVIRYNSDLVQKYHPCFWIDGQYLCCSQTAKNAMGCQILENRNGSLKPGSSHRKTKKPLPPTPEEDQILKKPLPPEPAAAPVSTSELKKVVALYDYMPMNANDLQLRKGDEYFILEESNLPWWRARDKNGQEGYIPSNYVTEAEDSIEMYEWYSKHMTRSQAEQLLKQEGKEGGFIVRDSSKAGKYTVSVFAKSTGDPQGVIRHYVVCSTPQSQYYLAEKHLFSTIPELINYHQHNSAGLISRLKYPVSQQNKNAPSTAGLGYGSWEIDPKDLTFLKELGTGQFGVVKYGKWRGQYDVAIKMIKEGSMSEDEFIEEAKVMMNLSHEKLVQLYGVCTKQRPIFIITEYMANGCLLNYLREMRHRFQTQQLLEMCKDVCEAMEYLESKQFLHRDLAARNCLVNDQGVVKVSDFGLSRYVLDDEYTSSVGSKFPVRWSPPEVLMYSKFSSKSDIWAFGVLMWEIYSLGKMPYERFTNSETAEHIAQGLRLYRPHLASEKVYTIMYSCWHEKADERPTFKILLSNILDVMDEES

Test [2] has as its target T1, BTK. Briefly: In Vitro BTK Kinase Assay: BTK-POLYGAT-LS ASSAY. The test is classed as biochemical. Particulars: ATP 10 μM, polyGAT 100 nM, BTK 0.25 nM, 30 minutes. The procedure, abridged: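 BTK (0.25 nM final) with 10 μM ATP and 100 nM polyGAT in pH 7.5 Tris buffer with MgCl2, DTT, Triton X-100 and casein; compound titrated 4-fold. Reaction 30 min, stopped with EDTA. Phosphorylation detected by TR-FRET with Tb-PY20 antibody after 45 min at room temperature; IC50 reported.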

By IC50 is commonly meant the point on the concentration scale where inhibition reaches its midpoint. Consider `CC(C)(C)c1noc(C(=O)N[C@@H]2CCCCc3cc(-c4ccnc(NC(=O)C5CC5)c4)ccc32)n1` [Compound 18, (R)-3-(tert-butyl)-N-(2-(2-(cyclopropanecarboxamido)pyridin-4-yl)-6,7,8,9-tetrahydro-5H-benzo[7]annulen-5-yl)-1,2,4-oxadiazole-5-carboxamide], for which the IC50 is no more than 100 nM in test [1] and no more than 1 nM in test [2].
